The test system of series [1] is Au565 cells. Briefly: Western blot for p-eEF-2. Type of series: cell-based. Conditions: FIG. 7A. An excerpt: FIG. 7A a photograph of a Western Blot showing the affect of certain tyrosine kinase inhibitors on expression p-eEF2 and p-AMPKα.
(§1) This can be seen in MDA-MB-468 breast cancer cells where calcium is detected by fluorescently by Fluoro-4. This redistribution of calcium results in the activation and phosphorylation of AMPK. Activated AMPK represses translation by phosphorylation of the translation factor eEF-2 (FIG. 7), which inactivates eEF-2 and represses protein synthesis, a known effect of TKIs.
(Immunoblotting shows a protein as a band on a membrane.)

Series [2] deals with primary human cardiac myocytes. Briefly: Lipid staining of cardiomyocytes. In kind it is cell-based. Conditions: FIG. 4. An excerpt: FIG. 4 are photographs of primary human cardiac myocytes grown under various conditions and stained for lipids.
FIG. 5 is a bar graph illustrating the percentage of human cardiomyocytes testing positive for lipids under various conditions.

The test system of series [3] is HER2-expressing human cardiomyocytes. Briefly: AMPK activation, ATP production and TNFα-induced apoptosis in cardiomyocytes. In kind it is cell-based.
The test system of series [4] is MDA-MB-468 breast cancer cells. Briefly: Intracellular calcium detected by Fluoro-4. In kind it is cell-based. To be noted: MDA-MB-468 cells, Fluoro-4, FIG. 6.
Excerpt: FIG. 6 are photographs of MDA-MB-468 cells treated by GW-2974 and intracellular Ca detected by Fluoro-4.
as §1

For the next series, the system named is cardiomyocytes cells. Briefly: ERRα and MCAD in cardiomyocytes treated with kinase inhibitors. Conditions: FIG. 8. Type of series: cell-based. From the text:
FIG. 8 is a photograph of ERRα and MCAD in cardiomyocytes cells with and without treatment by various kinase inhibitors.
ERRα plays a role in lipid metabolism in cardiac cells, and MCAD is an enzyme that breaks down lipids and fatty acids. Mutations in MCAD is a common genetic disorder, especially in those of northern European descent.

Series [5] deals with normal fat cells grown in culture. Briefly: Lipid stored in cultured fat cells (Oil red O staining). To be noted: normal fat cells (adipocytes) grown in culture, also cardiac cells. In kind it is cell-based. From the text: Such studies can be conducted using Oil red 0 staining for lipids.
To this end at least a portion of a mammal or tissue can be treated with a kinase inhibitor such that the amount of lipid in the cells is reduced. Any suitable kinase inhibitor can be used. Methods for determining suitable inhibitors are well known. For example, samples of adipocytes can be grown in the presence and absence of a kinase inhibitor and stained with Oil red 0 by known methods to determine whether the kinase inhibitor causes a reduction in stored fat. […] Exemplary kinase inhibitors that are suitable for the invention include erbB inhibitors, especially including GW2974, GW572016, and the like. […] Au565 cells were grown under normal conditions known in the art and treated for 2 days with GW2974 (25 μM). The cells were collected, washed and sonicated in water (2,000,000 cells in 200 μL of water). The cells were spun down and were tested for acylcamitines (byproducts of mitochondrial fatty acid oxidation) by MS/MS for intraceullar metabolites.

For series [6], the system named is Au565 cells. Briefly: Oil red lipid staining of Au565 cells. To be noted: FIG. 2 and FIG. 3. Type of series: cell-based.
The subject of series [7] is Au565 cells. Briefly: p-eEF-2 expression by IHC. To be noted: FIG. 7B. Type of series: cell-based. An excerpt: FIG. 7B is a photograph of stained cells showing the expression of p-eEF2 in Au565 cells in the presence of various compounds.
Series [8] concerns Au565 cells. Briefly: Acylcarnitines (byproducts of mitochondrial fatty acid oxidation) by MS/MS in treated Au565 cells. In kind it is cell-based. Conditions: Au565 cell pellet, GW2974 25 μM, 2 days. From the text: In addition, tyrosine kinase inhibitors can be used to reduce fat in cells, particularly cells that are otherwise normal or that lack protein tyrosine kinase activity mediated disease. To this end at least a portion of a mammal or tissue can be treated with a kinase inhibitor such that the amount of lipid in the cells is reduced. Any suitable kinase inhibitor can be used. Methods for determining suitable inhibitors are well known. For example, samples of adipocytes can be grown in the presence and absence of a kinase inhibitor and stained with Oil red 0 by known methods to determine whether the kinase inhibitor causes a reduction in stored fat. Those kinase inhibitors that cause an observable reduction in fat storage are suitable for the present invention. Exemplary kinase inhibitors that are suitable for the invention include erbB inhibitors, especially including GW2974, GW572016, and the like. […] Au565 cells were grown under normal conditions known in the art and treated for 2 days with GW2974 (25 μM). The cells were collected, washed and sonicated in water (2,000,000 cells in 200 μL of water). The cells were spun down and were tested for acylcamitines (byproducts of mitochondrial fatty acid oxidation) by MS/MS for intraceullar metabolites.

The subject of series [9] is Au565 cells. Briefly: Microarray mRNA expression profile of Au565 cells treated with GW2974. Conditions: GW2974 25 μM vs untreated. Type of series: cell-based, human. On the procedure: Au565 cells were grown under normal conditions and were untreated or treated with GW2974 (25 μM). Cells were pelleted, snap frozen in liquid nitrogen and subjected to microarray analysis. RNA was isolated using the Agilent Total RNA Isolation Kit. Cy3 and Cy5 labeled cRNA was prepared using the Agilent Low RNA Input Fluorescent Linear Amplification Kit. Labeled cRNAs were hybridized to a G4110A Human 1A(V2) microarray consisting of 60-mer oligonucleotides representing over 18K well-characterized, full length, human genes.

Where “and” joins values, the source holds several entries; their conditions need not be identical. Equal entries are not always repeated. Entries after “also recorded” stand apart in the source; their conditions may differ.

For the molecule `CN(C)c1cc2c(Nc3ccc4c(cnn4Cc4ccccc4)c3)ncnc2cn1` [GW2974], the “p-eEF-2 by western blot” value in the series with Au565 cells [1] is “dramatically increased”. Also, the “lipids in cardiomyocyte cells compared with untreated cells” value in series [2] was “not decrease”. For the same molecule, in [3], the AMPK activation entry is on record as “can activate AMPK” and the ATP production result was “increases ATP production”. The “cardiomyocyte apoptosis / cell death induced by TNFα” value in series [3] (TNFα) is “protecting against apoptosis induced by TNFα”. In addition, the intracellular calcium distribution result in series [4] is listed as “redistribution of intracellular calcium”. The MCAD expression entry in the series with cardiomyocytes cells is “completely absent”. Moreover, the “lipid stored within fat cells” value in series [5] was “rapidly disappears; also recorded: lose lipid”. For the same molecule, the “lipids in Au565 cells (oil red staining)” value with Au565 cells [6] is on record as “reduced”. Also, the “p-eEF-2 expression by IHC” value with Au565 cells [7] is “do”. Further, in the series with Au565 cells [8], the “Acylcarnitines C2” value is 258.88 pmoles of protein, the “Acylcarnitines C16” value was 0.83 pmoles of protein and the “Acylcarnitines C18:1” value was 4.1 pmoles of protein. For the same molecule, in the series on Au565 cells [9], the “ACAT2: GW2974 change compared to control” value is on record as −5.3, the “AKAP5: GW2974 change compared to control” value is listed as −7.3x, the “AVIL: GW2974 change compared to control” value worked out at 4.2x and the “BBOX1: GW2974 change compared to control” value is recorded as 5.1. For the same molecule, in the series on Au565 cells [9], the “CAMK4: GW2974 change compared to control” value turned out to be 4.5x, the “CASK: GW2974 change compared to control” value was −4.2x, the “CCR2: GW2974 change compared to control” value is recorded as −5.0x and the “CD38: GW2974 change compared to control” value is reported as −4.4x. Moreover, in the series on Au565 cells [9], the “CLCA1: GW2974 change compared to control” value was −6.7x, the “CLSP: GW2974 change compared to control” value is −4.0x, the “CYP2C8: GW2974 change compared to control” value is on record as 4.5x and the “ELOVL2: GW2974 change compared to control” value is reported as −4.4x. In the series on Au565 cells [9], the “FABP1: GW2974 change compared to control” value is given as −7.2, the “FASN: GW2974 change compared to control” value is on record as −4.3x, the “FKSG14: GW2974 change compared to control” value was −4.6x and the “FLJ12476: GW2974 change compared to control” value is 5.0x. For the same molecule, in the series with Au565 cells [9], the “FREQ: GW2974 change compared to control” value is recorded as −5.3x, the “GLS: GW2974 change compared to control” value was 5.1, the “GNB5: GW2974 change compared to control” value is reported as −4.1x and the “GSTT2: GW2974 change compared to control” value is on record as −5.3. For the same molecule, in the series with Au565 cells [9], the “HPCAL1: GW2974 change compared to control” value was −4.5x; the “HSPA8: GW2974 change compared to control” value is given as −4.2x; the “LDLR: GW2974 change compared to control” value is given as −5.2x; the “NRXN3: GW2974 change compared to control” value was 4.58x and 4.6x. Further, in the series on Au565 cells [9], the “PFKL: GW2974 change compared to control” value is given as −4.7; the “PRKG1: GW2974 change compared to control” value was 6.5x and 6.51x; the “SAT: GW2974 change compared to control” value was found to be 4.4; the “SCN1A: GW2974 change compared to control” value is recorded as 4.1x. In the series on Au565 cells [9], the “SOAT1: GW2974 change compared to control” value is recorded as −4.0x, the “STK33: GW2974 change compared to control” value was −5.3x and the “TGFβ1: GW2974 change compared to control” value turned out to be 5.31x. In addition, in the series with Au565 cells [9] (Table IV A), the “S100A9: GW2974 change compared to control” value is given as −5.5x. In addition, the “S100A9: GW2974 change compared to control” value in the series on Au565 cells [9] (Table IV C) was −5.4.

For `COc1cc2ncnc(Nc3ccc(F)c(Cl)c3)c2cc1OCCCN1CCOCC1` [Iressa], the “p-eEF-2 expression by IHC” value in the series with Au565 cells [7] is “do”.

`CS(=O)(=O)CCNCc1ccc(-c2ccc3ncnc(Nc4ccc(OCc5cccc(F)c5)c(Cl)c4)c3c2)o1` [lapatinib]: the “lipid stored within fat cells” value is recorded as “loss of fat” in series [5] and “rapidly disappears” in series [5] (listed as GW572016).

The values are drawn from patent publication US8709738B2, “Methods for predicting cardiac toxicity” (Quintiles Transnational Corporation, priority 2006, dated 2014).
